Results on 15 molecules are retold here after patent publication US10040791B2, “Isoxazole derivative as mutant isocitrate dehydrogenase 1 inhibitor” (Daiichi Sankyo Company, Limited, priority 2014, dated 2018).

Experiment [1] relates to HT-1080 cells expressing IDH1R132C. As to the kind of experiment: 2-HG production inhibitory activity using HT1080 cell. The experiment is classed as cell-based, human. To be noted: Homo sapiens, HT-1080; 2-HG production, HT1080 cells; read-out: Test Example 3 IC50. The protocol: Then, 100 μL of growth medium B was added to each well, further 25 μL of a solution of each compound diluted to a predetermined concentration with growth medium B was added to each well, and the cells were incubated at 37° C. for 2 days under 5% CO2. […] Then, 150 μL of ultrapure water was further added to each well, and the mixture was stirred by pipetting and stored at −20° C.
The preserved solutions were thawed at room temperature.

Another experiment addresses IDH1R132C (Homo sapiens (Human), UniProt O75874, R132C). As to the kind of experiment: Inhibitory activity against IDH1R132C enzyme (NADPH detection, WST-8). The experiment is classed as biochemical. Conditions: 10 nM, residual NADPH detected with WST-8, read-out: Test Example 1 IDH1 R132C IC50. Here is the method:
After transformation of Rosetta 2 (DE3) E. coli, the expression of the protein was induced with IPTG.
While NADPH-derived fluorescence was occasionally monitored, the reaction was terminated by the addition of 5 μL of 0.5 M EDTA before consumption of NADPH. 5 μL of WST-8 reagent (Dojindo Laboratories, #CK04) was further added and mixed therewith. 15 minutes later, the absorbance at 450 nm was measured using a plate reader (PerkinElmer, Inc., EnVision). The observed absorbance value reflects the amount of residual NADPH. From the absorbance data, the enzyme inhibitory activity of each compound at each concentration was calculated and analyzed using medical statistical analysis software GraphPad Prism to calculate an IC50 value.

Structures are written as SMILES.

IDH1R132C, sequence (O75874 whole entry R132C): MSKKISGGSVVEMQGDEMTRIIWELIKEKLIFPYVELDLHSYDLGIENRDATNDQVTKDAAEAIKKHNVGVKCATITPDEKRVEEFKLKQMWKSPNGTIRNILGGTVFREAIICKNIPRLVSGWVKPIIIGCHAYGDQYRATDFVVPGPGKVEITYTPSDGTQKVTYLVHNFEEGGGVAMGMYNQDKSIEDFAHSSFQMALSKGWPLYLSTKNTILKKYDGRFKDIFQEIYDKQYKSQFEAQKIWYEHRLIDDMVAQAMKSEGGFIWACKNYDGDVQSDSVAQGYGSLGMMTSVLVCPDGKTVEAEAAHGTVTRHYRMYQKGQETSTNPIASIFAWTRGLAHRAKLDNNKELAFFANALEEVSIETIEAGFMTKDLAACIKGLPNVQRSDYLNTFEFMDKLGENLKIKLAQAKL

On to `Cc1cn(C(=O)c2c(-c3c(Cl)cc(Cl)cc3Cl)noc2C2(N)CCC2)c2cccc(/C=C/C(=O)O)c12` [Example 90, (2E)-3-(1-{[5-(1-Aminocyclobutyl)-3-(2,4,6-trichlorophenyl)-1,2-oxazol-4-yl]carbonyl}-3-methyl-1H-indol-4-yl)prop-2-enoic acid], for which the IC50 in experiment [1] was determined as 36 nM; at IDH1R132C, 59 nM.
For the molecule `Cc1cn(C(=O)c2c(-c3c(Cl)cc(Cl)cc3Cl)noc2C(C)(C)N(C)C)c2cccc(/C=C/C(=O)O)c12` [Example 91, (2E)-3-[1-({5-[2-(Dimethylamino)propan-2-yl]-3-(2,4,6-trichlorophenyl)-1,2-oxazol-4-yl}carbonyl)-3-methyl-1H-indol-4-yl]prop-2-enoic acid], the values for the IC50 (in experiment [1]; on IDH1R132C) were 23 nM and 120 nM, respectively.
On to `CN(C)C1(c2onc(-c3c(Cl)cc(Cl)cc3Cl)c2C(=O)n2cc3c4c(cccc42)/C(=C/C(=O)O)CC3)CC1` [Example 92], for which the IC50 in experiment [1] was 9 nM; on IDH1R132C, 80 nM.
On to `C=CC(=O)N1CCCC(c2onc(-c3c(Cl)cc(Cl)cc3Cl)c2C(=O)n2ccc3c(/C=C/C(=O)O)cccc32)C1` (stereo not drawn) [Example 96], for which the IC50 was determined as 290 nM in experiment [1] and 422 nM at IDH1R132C.
As for `C=CC(=O)N1CC(OC)(c2onc(-c3c(Cl)cc(Cl)cc3Cl)c2C(=O)n2ccc3c(/C=C/C(=O)O)cccc32)C1` [Example 97], the figures for the IC50 (in experiment [1]; on IDH1R132C) were 162 nM and 164 nM, respectively.
As to `C=CC(=O)N1CC(C)(c2onc(-c3c(Cl)cc(Cl)cc3Cl)c2C(=O)n2ccc3c(/C=C/C(=O)O)cccc32)C1` [Example 98], the IC50 in experiment [1] came out at 34 nM; on IDH1R132C, 116 nM.
In the case of `C#CC(=O)N1CC(c2onc(-c3c(Cl)cc(Cl)cc3Cl)c2C(=O)n2ccc3c(/C=C/C(=O)O)cccc32)C1` [Example 101], the figures for the IC50 (in experiment [1]; on IDH1R132C) were 32 nM and 189 nM, respectively.
As to `C=CC(=O)N1CCC(c2onc(-c3c(Cl)cccc3Cl)c2C(=O)n2ccc3c(/C=C/C(=O)O)cccc32)CC1` [Example 102], the IC50 in experiment [1] is 50 nM; on IDH1R132C it was 117 nM.
For the molecule `C=CC(=O)N1CCC(C)(c2onc(-c3c(Cl)cc(Cl)cc3Cl)c2C(=O)n2ccc3c(/C=C/C(=O)O)cccc32)CC1` [Example 111], the IC50 in experiment [1] was found to be 10 nM; on IDH1R132C, 188 nM.
Regarding `C=CC(=O)N1CCC(O)(c2onc(-c3c(Cl)cc(Cl)cc3Cl)c2C(=O)n2cc(C)c3c(/C=C/C(=O)O)cccc32)CC1` [Example 123], the results for the IC50 (in experiment [1]; at IDH1R132C) were 13 nM and 149 nM, respectively.
Take `C=CC(=O)N1CC2C(C1)C2c1onc(-c2c(Cl)cc(Cl)cc2Cl)c1C(=O)n1cc(C)c2c(/C=C/C(=O)O)cccc21` (stereo not drawn) [Example 124]: the half-inhibitory concentration (IC50) came to 22 nM in experiment [1] and 125 nM at IDH1R132C.
Regarding `C=CC(=O)N1CCC(c2onc(-c3c(Cl)cc(Cl)cc3Cl)c2C(=O)n2cc(C)c3c(/C=C/C(=O)O)cccc32)(N(C)C)CC1` [Example 126], the IC50 in experiment [1] was determined as 8 nM; at IDH1R132C it was 149 nM.
The corresponding values for `C=CC(=O)N1CCC(c2onc(-c3ccc(Cl)c(F)c3Cl)c2C(=O)n2cc(C)c3c(/C=C/C(=O)O)cccc32)CC1` [Example 129] are 10 nM and 182 nM.
The corresponding values for `C=CC(=O)N1CCC(c2noc(-c3c(Cl)cc(Cl)cc3Cl)c2C(=O)n2ccc3c(/C=C/C(=O)O)cccc32)CC1` [Example 132, (2E)-3-(1-{[3-(1-Acryloylpiperidin-4-yl)-5-(2,4,6-trichlorophenyl)-1,2-oxazol-4-yl]carbonyl}-1H-indol-4-yl)prop-2-enoic acid] are 28 nM and 279 nM.
For `CN(C)c1onc(-c2c(Cl)cccc2Cl)c1C(=O)n1ccc2c(/C=C/C(=O)O)cccc21` [Example 133, (2E)-3-(1-{[3-(2,6-Dichlorophenyl)-5-(dimethylamino)-1,2-oxazol-4-yl]carbonyl}-1H-indol-4-yl)prop-2-enoic acid], in that order: 390 nM and 93 nM.

The term IC50 denotes the concentration at which inhibition is half-maximal.
